Test [1] deals with CDK7/Cyclin H/MAT1 (Homo sapiens, UniProt P50613). As to the kind of experiment: ADP-Glo kinase assay, CDK7. The class given is biochemical. Particulars: 80 nM CDK7/Cyclin H/MAT1, 70 µM ATP (Km), 0.2 mg/mL MBP, 60 min; read-out: inhibitory activity (IC50, nM) CDK7. As to the method:
(§1) An ADP-Glo kinase assay was used for testing the activity of CDKs. The compounds were diluted in 384-well plates using Echo. The starting concentration was 10 µM and was diluted 3-fold to obtain 10 concentration points, and each concentration was tested in duplicate. The final concentration of DMSO in the assay system was 1%. CDK solutions (final concentrations: 16.5 nM CDK1/CyclinB, 1 nM CDK2/CyclinE1, 16.3 nM CDK4/CyclinD1, 15.7 nM CDK6/CyclinD3, 80 nM CDK7/Cyclin H/MAT1, and 15.3 nM CDK9/Cyclin T1) prepared with assay buffer were added at 2.5 µL, and the enzymes and compounds were pre-incubated at room temperature for 10 min. […] After thorough mixing, the plates were incubated at room temperature (for 120 min for CDK1/4/9 and for 60 min for CDK2/6/7). 4 µL of the ADP-Glo reagent was added, and the plates were incubated at room temperature for 40 min. 8 µL of the kinase assay reagent was added, and the plates were incubated at room temperature for 40 min. Readings were taken using an Envision multimode microplate reader. Data were processed using GraphPad Prism 8, and IC50 was calculated. [formula] X: the logarithm of the compound concentration; Y: % inhibition; Bottom: bottom; Top: top; HillSlope: Hill slope. Table 3. The inhibitory activity (IC50, nM) of the compounds of the present disclosure against CDKs
(In general: In ADP-Glo the light output rises with the ADP produced.)

Test [2] deals with CDK9/Cyclin T1 (Homo sapiens, UniProt P50750). As to the kind of experiment: ADP-Glo kinase assay, CDK9. The class given is biochemical. Particulars: 15.3 nM CDK9/Cyclin T1, 60 µM ATP (Km), 0.2 mg/mL PDKtide, 120 min; read-out: inhibitory activity (IC50, nM) CDK9. On the procedure:
as §1

For test [3], the target named is CDK4/CyclinD1 (Homo sapiens, UniProt P11802). As to the kind of experiment: ADP-Glo kinase assay, CDK4. The class given is biochemical. Particulars: 16.3 nM CDK4/CyclinD1, 200 µM ATP (Km), 0.2 mg/mL DYRKtide, 120 min; read-out: inhibitory activity (IC50, nM) CDK4. On the procedure:
as §1

For test [4], the target named is CDK6/CyclinD3 (Homo sapiens, UniProt Q00534). As to the kind of experiment: ADP-Glo kinase assay, CDK6. The note with it: 15.7 nM CDK6/CyclinD3, 200 µM ATP (Km), 0.1 mg/mL histone H1, 60 min; read-out: inhibitory activity (IC50, nM) CDK 6. In kind it is biochemical. As to the method: as §1
The target of test [5] is CDK1/CyclinB (Homo sapiens, UniProt P06493). Kind of test: ADP-Glo kinase assay, CDK1. The class given is biochemical. Particulars: 16.5 nM CDK1/CyclinB, 20 µM ATP (Km), 0.1 mg/mL histone H1, 120 min; read-out: inhibitory activity (IC50, nM) CDK1. On the procedure: as §1
Test [6] deals with Ovarian cancer cells OVCAR3. Kind of test: Inhibitory activity against ovarian cancer cells (OVCAR3), CellTiter-Glo cell viability. The class given is cell-based. The note with it: for IC50: Homo sapiens, OVCAR-3, 120 h, OVCAR3 cells, 2500 cells/well, 5 days with compound, highest concentration 10 µM, Celltiter Glo; for inhibitory activity against OVCAR3 tumor cells compared with Janssen-01: comparison in words with the disclosed compound Janssen-01. On the procedure: Test Example 1. Assay for Inhibitory Activity of Compounds of Present Disclosure Against Ovarian Cancer Cells (OVCAR3)
Ovarian cancer cells OVCAR3 (source: Nanjing Cobioer Biosciences Co., Ltd.) were cultured in an RPMI 1640 culture medium supplemented with 10% FBS in a cell incubator at 37 °C with 5% CO2. On day one, the cells were plated in a 96-well plate at a cell concentration of 2500 cells/well and cultured overnight in an incubator. On day two, the cells were treated with compounds. The highest compound concentration was 10 µM and was diluted 3-fold to obtain 9 concentrations, and the final concentration of DMSO was 0.1%. After the cells were cultured in the incubator for another 5 days, the cell viability was measured using a Celltiter Glo assay kit (Promega) by a method consistent with that provided by the kit. Data were processed using GraphPad Prism 8, and IC50 was calculated. [formula] X: the logarithm of the compound concentration; Y: % inhibition; Bottom: bottom; Top: top; HillSlope: Hill slope. Table 2. The IC50 (nM) of the compounds of the present disclosure against OVCAR3
In general terms: ATP-based viability assays read luminescence as a measure of living cells.

For test [7], the target named is CDK2/CyclinE1 (Homo sapiens, UniProt P24941). Kind of test: ADP-Glo kinase assay, CDK2. The class given is biochemical. The note with it: 1 nM CDK2/CyclinE1, 15 µM ATP (Km), 0.1 mg/mL histone H1, 60 min; read-out: inhibitory activity (IC50, nM) CDK2. On the procedure: as §1

For orientation: IC50 means the point on the concentration scale where inhibition reaches its midpoint.

CDK1/CyclinB, sequence (P06493 whole entry, species assumed): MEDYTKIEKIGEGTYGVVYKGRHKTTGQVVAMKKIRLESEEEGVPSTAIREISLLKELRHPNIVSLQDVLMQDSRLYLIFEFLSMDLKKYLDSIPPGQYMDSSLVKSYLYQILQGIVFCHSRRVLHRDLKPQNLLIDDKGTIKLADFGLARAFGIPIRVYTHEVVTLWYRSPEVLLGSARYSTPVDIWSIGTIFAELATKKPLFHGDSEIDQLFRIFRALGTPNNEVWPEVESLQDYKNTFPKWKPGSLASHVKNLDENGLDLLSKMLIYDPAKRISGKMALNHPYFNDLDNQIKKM
CDK1/CyclinB, sequence (P14635 whole entry partner, species assumed): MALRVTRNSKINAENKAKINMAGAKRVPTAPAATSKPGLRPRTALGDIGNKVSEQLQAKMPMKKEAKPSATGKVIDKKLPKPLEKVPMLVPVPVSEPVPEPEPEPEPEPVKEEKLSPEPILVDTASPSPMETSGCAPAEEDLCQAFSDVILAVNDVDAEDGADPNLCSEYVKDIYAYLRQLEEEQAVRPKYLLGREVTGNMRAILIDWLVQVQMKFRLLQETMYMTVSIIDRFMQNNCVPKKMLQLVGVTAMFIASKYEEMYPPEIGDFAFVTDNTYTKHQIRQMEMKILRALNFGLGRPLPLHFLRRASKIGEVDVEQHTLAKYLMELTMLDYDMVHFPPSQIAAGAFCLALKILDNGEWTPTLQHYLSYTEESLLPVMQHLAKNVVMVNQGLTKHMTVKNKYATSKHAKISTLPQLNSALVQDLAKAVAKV
CDK4/CyclinD1, sequence (P11802 whole entry, species assumed): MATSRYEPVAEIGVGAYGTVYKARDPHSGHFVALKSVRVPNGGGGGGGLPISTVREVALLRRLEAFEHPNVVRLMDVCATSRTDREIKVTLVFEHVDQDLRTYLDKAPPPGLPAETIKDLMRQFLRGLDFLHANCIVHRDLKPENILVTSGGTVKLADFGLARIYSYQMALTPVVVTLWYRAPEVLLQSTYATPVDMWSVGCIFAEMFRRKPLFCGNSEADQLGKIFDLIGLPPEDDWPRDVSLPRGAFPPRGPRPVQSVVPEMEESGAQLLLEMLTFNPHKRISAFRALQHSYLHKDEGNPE
CDK4/CyclinD1, sequence (P24385 whole entry partner, species assumed): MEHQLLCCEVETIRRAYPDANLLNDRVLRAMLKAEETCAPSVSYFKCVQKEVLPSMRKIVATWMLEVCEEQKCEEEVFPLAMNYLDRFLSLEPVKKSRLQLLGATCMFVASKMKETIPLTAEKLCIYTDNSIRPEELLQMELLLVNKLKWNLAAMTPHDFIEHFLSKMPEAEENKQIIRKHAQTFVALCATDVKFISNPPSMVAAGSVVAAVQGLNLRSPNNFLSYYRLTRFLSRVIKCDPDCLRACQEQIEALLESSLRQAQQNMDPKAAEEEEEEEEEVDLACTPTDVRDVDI
CDK9/Cyclin T1, sequence (P50750 whole entry, species assumed): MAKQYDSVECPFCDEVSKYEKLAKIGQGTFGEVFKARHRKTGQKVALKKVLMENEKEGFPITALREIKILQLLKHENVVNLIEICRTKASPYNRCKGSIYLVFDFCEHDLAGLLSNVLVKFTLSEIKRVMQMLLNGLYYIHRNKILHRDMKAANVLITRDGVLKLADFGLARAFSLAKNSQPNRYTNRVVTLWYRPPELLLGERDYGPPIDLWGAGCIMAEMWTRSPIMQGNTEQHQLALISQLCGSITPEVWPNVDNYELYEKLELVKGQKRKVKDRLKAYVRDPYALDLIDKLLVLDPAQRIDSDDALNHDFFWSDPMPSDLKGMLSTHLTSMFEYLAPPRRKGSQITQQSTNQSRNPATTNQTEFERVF
CDK9/Cyclin T1, sequence (O60563 whole entry partner, species assumed): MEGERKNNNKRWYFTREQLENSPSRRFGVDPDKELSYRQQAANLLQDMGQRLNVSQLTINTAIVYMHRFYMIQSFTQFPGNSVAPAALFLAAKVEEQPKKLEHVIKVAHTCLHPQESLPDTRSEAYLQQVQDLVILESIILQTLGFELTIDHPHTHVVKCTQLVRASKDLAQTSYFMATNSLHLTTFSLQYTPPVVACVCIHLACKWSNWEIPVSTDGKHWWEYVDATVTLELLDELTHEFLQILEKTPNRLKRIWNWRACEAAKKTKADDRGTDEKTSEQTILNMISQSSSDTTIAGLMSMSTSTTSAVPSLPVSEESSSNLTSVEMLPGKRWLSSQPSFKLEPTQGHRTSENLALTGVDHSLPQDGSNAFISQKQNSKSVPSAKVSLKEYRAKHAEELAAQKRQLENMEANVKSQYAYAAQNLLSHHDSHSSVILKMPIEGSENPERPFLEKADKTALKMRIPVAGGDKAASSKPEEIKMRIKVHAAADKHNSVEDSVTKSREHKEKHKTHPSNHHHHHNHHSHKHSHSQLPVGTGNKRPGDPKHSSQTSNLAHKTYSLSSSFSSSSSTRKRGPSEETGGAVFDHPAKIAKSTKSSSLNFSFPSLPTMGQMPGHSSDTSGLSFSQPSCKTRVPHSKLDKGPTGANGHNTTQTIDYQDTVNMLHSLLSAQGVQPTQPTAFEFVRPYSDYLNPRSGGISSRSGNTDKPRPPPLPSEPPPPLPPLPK
CDK7/Cyclin H/MAT1, sequence (P50613 whole entry, species assumed): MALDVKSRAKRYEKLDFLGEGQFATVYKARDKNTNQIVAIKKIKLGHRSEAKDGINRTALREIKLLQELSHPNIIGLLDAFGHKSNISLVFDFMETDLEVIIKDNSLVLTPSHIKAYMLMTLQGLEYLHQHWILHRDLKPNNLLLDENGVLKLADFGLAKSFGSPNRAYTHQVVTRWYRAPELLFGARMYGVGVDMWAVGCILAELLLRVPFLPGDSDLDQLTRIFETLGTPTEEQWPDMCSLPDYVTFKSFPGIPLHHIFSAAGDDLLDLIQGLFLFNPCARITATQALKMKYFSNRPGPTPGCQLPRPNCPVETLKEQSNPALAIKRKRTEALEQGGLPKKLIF
CDK7/Cyclin H/MAT1, sequence (P51946 whole entry partner, species assumed): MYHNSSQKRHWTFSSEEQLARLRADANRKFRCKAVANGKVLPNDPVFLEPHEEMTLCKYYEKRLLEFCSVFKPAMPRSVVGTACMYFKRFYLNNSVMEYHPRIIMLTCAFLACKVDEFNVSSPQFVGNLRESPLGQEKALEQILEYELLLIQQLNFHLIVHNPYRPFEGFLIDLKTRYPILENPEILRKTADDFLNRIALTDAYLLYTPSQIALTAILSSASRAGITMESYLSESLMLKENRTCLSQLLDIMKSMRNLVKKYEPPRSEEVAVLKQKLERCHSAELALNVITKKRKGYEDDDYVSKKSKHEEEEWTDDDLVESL
CDK7/Cyclin H/MAT1, sequence (P51948 whole entry partner, species assumed): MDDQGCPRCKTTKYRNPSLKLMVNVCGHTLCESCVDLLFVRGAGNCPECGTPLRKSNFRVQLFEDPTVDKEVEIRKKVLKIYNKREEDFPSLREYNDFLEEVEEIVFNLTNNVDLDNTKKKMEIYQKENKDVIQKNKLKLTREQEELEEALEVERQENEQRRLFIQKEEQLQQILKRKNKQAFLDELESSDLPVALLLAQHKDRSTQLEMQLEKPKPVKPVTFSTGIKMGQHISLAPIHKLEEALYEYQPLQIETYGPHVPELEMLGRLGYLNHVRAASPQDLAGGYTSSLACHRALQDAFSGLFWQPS
CDK6/CyclinD3, sequence (Q00534 whole entry, species assumed): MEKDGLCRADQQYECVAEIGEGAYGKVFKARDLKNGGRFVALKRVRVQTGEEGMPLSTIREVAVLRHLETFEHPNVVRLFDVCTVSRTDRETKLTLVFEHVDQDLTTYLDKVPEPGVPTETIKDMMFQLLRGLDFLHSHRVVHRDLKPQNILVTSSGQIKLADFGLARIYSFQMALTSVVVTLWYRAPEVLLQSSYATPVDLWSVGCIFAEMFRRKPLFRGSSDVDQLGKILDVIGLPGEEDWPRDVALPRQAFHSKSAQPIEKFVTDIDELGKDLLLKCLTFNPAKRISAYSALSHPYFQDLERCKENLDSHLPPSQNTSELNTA
CDK6/CyclinD3, sequence (P30281 whole entry partner, species assumed): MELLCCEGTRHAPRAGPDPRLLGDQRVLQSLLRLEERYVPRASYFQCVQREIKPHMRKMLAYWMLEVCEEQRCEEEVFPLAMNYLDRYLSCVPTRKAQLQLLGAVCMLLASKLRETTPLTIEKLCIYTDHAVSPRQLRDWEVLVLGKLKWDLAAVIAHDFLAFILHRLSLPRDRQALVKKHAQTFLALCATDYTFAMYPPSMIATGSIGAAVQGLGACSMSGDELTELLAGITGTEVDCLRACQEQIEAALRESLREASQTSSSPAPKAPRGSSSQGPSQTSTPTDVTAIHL

Turning to `Cc1csc([C@H](C)Nc2ncc3c(n2)CN(C(=O)N[C@H](CN(C)C)c2ccccc2)[C@H](C)C3)n1` [Compound 2-1, (R)-N-((S)-2-(Dimethylamino)-1-phenylethyl)-6-methyl-2-(((S)-1-(4-methylthiazol-2-yl)ethyl)amino)-5,8-dihydropyrido[3,4-d]pyrimidine-7(6H)-carboxamide], the half-inhibitory concentration (IC50) in test [1] is 0.96 nM; in test [2], more than 1000 nM; in test [3] it was more than 1000 nM; in test [4], more than 1000 nM; in test [5] it was more than 1000 nM; in test [6], less than 1.5 nM. Further, the concentration for half-maximal inhibition (IC50) in test [7] was 711 nM. Besides, the “inhibitory activity against OVCAR3 tumor cells compared with Janssen-01” value (“inhibitory activity … compared with Janssen-01” for short) in test [6] is recorded as “significantly better than that of the disclosed compound Janssen-01”.
With `C[C@@H]1Cc2cnc(NCc3ccn(C)n3)nc2CN1C(=O)[C@H]1CCN(C)C[C@@H]1c1ccccc1` [Janssen-01, reference compound], the IC50 in test [6] was determined as 22.2 nM.
For the compound `C[C@H](Nc1ncc2c(n1)CN(C(=O)N[C@H](CN(C)C)c1ccccc1)[C@H](C)C2)c1nc(C2CC2)cs1` [Compound 4, (R)-2-(((S)-1-(4-Cyclopropylthiazol-2-yl)ethyl)amino)-N-((S)-2-(dimethylamino)-1-phenylethyl)-6-methyl-5,8-dihydropyrido[3,4-d]pyrimidine-7(6H)-carboxamide], the IC50 is 0.55 nM in test [1]; more than 1000 nM in test [2]; more than 1000 nM in test [3]; more than 1000 nM in test [4]; more than 1000 nM in test [5]; less than 1.5 nM in test [6]. For the same compound, the IC50 in test [7] is 571 nM. Besides, in test [6], the “inhibitory activity … compared with Janssen-01” value is “significantly better than that of the disclosed compound Janssen-01”.
For `Cc1csc([C@@H](C)Nc2ncc3c(n2)CN(C(=O)N[C@H](CN(C)C)c2ccccc2)[C@H](C)C3)n1` [Compound 2-2, (R)-N-((S)-2-(Dimethylamino)-1-phenylethyl)-6-methyl-2-(((R)-1-(4-methylthiazol-2-yl)ethyl)amino)-5,8-dihydropyrido[3,4-d]pyrimidine-7(6H)-carboxamide], the 50% inhibitory concentration (IC50) in test [6] was determined as 66 nM.
Consider `Cc1csc(CNc2ncc3c(n2)CN(C(=O)N[C@H](CN(C)C)c2ccccc2)[C@H](C)C3)n1` [Compound 1], for which, in test [6], the IC50 was 10.2 nM.
For the compound `Cc1csc(C(C)Nc2ncc3c(n2)CN(C(=O)N[C@H](CN(C)C)c2ccccc2)[C@H](C)C3)n1` (stereo partly drawn) [Compound 2], the IC50 in test [6] was 3.98 nM.
Still for that read-out and setting: the figure for `[2H]C([2H])([2H])N(C[C@@H](NC(=O)N1Cc2nc(N[C@H](C)c3nc(C4CC4)cs3)ncc2C[C@H]1C)c1ccccc1)C([2H])([2H])[2H]` [Compound 10, (R)-2-(((R)-1-(4-Cyclopropylthiazol-2-yl)ethyl)amino)-N-((S)-2-(bis(methyl-d3)amino)-1-phenylethyl)-6-methyl-5,8-dihydropyrido[3,4-d]pyrimidine-7(6H)-carboxamide] is 19.3 nM.
Same read-out and setting: under `C[C@@H]1Cc2cnc(NCc3nc(C4CC4)cs3)nc2CN1C(=O)N[C@H](CN(C)C)c1ccccc1` [Compound 6, (R)-2-(((4-Cyclopropylthiazol-2-yl)methyl)amino)-N-((S)-2-(dimethylamino)-1-phenylethyl)-6-methyl-5,8-dihydropyrido[3,4-d]pyrimidine-7(6H)-carboxamide] stands 10.7 nM; under `[2H]C([2H])([2H])N(C[C@@H](NC(=O)N1Cc2nc(N[C@H](C)c3nc(C)cs3)ncc2C[C@H]1C)c1ccccc1)C([2H])([2H])[2H]` [Compound 3-2, (R)-N-((S)-2-(Bis(methyl-d3)amino)-1-phenylethyl)-6-methyl-2-(((R)-1-(4-methylthiazo 1-2-yl)ethyl)amino)-5,8-dihydropyrido[3,4-d]pyrimidine-7(6H)-carboxamide], 101 nM.
As to `[2H]C([2H])([2H])N(C[C@@H](NC(=O)N1Cc2nc(N[C@@H](C)c3nc(C4CC4)cs3)ncc2C[C@H]1C)c1ccccc1)C([2H])([2H])[2H]` [Compound 9, (R)-2-(((S)-1-(4-Cyclopropylthiazol-2-yl)ethyl)amino)-N-((S)-2-(bis(methyl-d3)amino)-1-phenylethyl)-6-methyl-5,8-dihydropyrido[3,4-d]pyrimidine-7(6H)-carboxamide], in test [6], the half-inhibitory concentration (IC50) was less than 1.5 nM and the “inhibitory activity … compared with Janssen-01” value is reported as “significantly better than that of the disclosed compound Janssen-01”.
Regarding `C[C@@H]1Cc2cnc(N[C@H](C)c3nc(C4CC4)cs3)nc2CN1C(=O)N[C@H](CN(C)C)c1ccccc1` [Compound 5, (R)-2-(((R)-1-(4-Cyclopropylthiazol-2-yl)ethyl)amino)-N-((S)-2-(dimethylamino)-1-phenylethyl)-6-methyl-5,8-dihydropyrido[3,4-d]pyrimidine-7(6H)-carboxamide], the IC50 in test [6] came out at 17.5 nM.
As for `[2H]C([2H])([2H])N(C[C@@H](NC(=O)N1Cc2nc(NCc3nc(C)cs3)ncc2C[C@H]1C)c1ccccc1)C([2H])([2H])[2H]` [Compound 7], the half-inhibitory concentration (IC50) in test [6] was determined as 11.2 nM.
As to `[2H]C([2H])([2H])N(C[C@@H](NC(=O)N1Cc2nc(N[C@@H](C)c3nc(C)cs3)ncc2C[C@H]1C)c1ccccc1)C([2H])([2H])[2H]` [Compound 3-1, (R)-N-((S)-2-(Bis(methyl-d3)amino)-1-phenylethyl)-6-methyl-2-(((S)-1-(4-methylthiazo 1-2-yl)ethyl)amino)-5,8-dihydropyrido[3,4-d]pyrimidine-7(6H)-carboxamide], in test [6], the half-maximal inhibitory concentration (IC50) is less than 1.5 nM and the “inhibitory activity … compared with Janssen-01” value is “significantly better than that of the disclosed compound Janssen-01”.
Consider `C[C@@H]1Cc2cnc(N[C@H](C)c3nc(CO)cs3)nc2CN1C(=O)N[C@H](CN(C)C)c1ccccc1` [Compound 11-2, (R)-N-((S)-2-(Dimethylamino)-1-phenylethyl)-2-(((R)-1-(4-(hydroxymethyl)thiazol-2-yl)ethyl)amino)-6-methyl-5,8-dihydropyrido[3,4-d]pyrimidine-7(6H)-carboxamide], for which the 50% inhibitory concentration (IC50) in test [6] worked out at 190 nM.
Turning to `C[C@H](Nc1ncc2c(n1)CN(C(=O)N[C@H](CN(C)C)c1ccccc1)[C@H](C)C2)c1nc(CO)cs1` [Compound 11-1, (R)-N-((S)-2-(Dimethylamino)-1-phenylethyl)-2-(((S)-1-(4-(hydroxymethyl)thiazol-2-yl)ethyl)amino)-6-methyl-5,8-dihydropyrido[3,4-d]pyrimidine-7(6H)-carboxamide], in test [6], the IC50 was 1.89 nM and the “inhibitory activity … compared with Janssen-01” value was “significantly better than that of the disclosed compound Janssen-01”.
As for `[2H]C([2H])([2H])N(C[C@@H](NC(=O)N1Cc2nc(NCc3nc(C4CC4)cs3)ncc2C[C@H]1C)c1ccccc1)C([2H])([2H])[2H]` [Compound 8, (R)-2-(((4-Cyclopropylthiazol-2-yl)methyl)amino)-N-((S)-2-(bis(methyl-d3)amino)-1-phenylethyl)-6-methyl-5,8-dihydropyrido[3,4-d]pyrimidine-7(6H)-carboxamide], the IC50 in test [6] was 9.89 nM.

(Values after patent EP4800014A1 (Tuojie Biotech (Shanghai) Co., Ltd., priority 2023, dated 2025).)
